The text below walks through data of patent US11980592B2, “Cannabinoid-containing complex mixtures for the treatment of neurodegenerative diseases” (GBS GLOBAL BIOPHARMA, INC., priority 2016, dated 2024).

Molecules are shown by their SMILES.

In the data set the test system is Cath.a cells. As to the kind of experiment: TRPV1-induced calcium-mediated cell death (Trypan Blue positivity). Type of data set: cell-based. As for the experimental part: We therefore studied susceptibility of HEK wild type cells, TRPV1 overexpressing HEK cells, and Cath.a cells to TRPV1-induced calcium-mediated cell death.
Cells were plated into tissue culture dishes and treated with either vehicle (HEK wild type and Cath.a) or tetracycline (1 micromolar) for 16 h to induce TRPV1 expression (HEK-TRPV1) at 37° C. in a […] atmosphere. After washing, media were replaced with a modified sodium Ringer solution containing 3% FBS and either 10 millimolar CaCl2 or zero added CaCl2 and 1 millimolar EGTA. […] After 2 minutes, aliquots of 7 microliters of cell suspension were counted in a hemocytometer and field of at least 200 cells were scored for Trypan Blue positive or negative status.

Turning to `COc1cc(CNC(=O)CCCC/C=C/C(C)C)ccc1O` [capsaicin], under “10 mM external CaCl2, 80 min after stimulation with 250 nM capsaicin”, the “cell death (trypan blue positivity) in Cath.a cells” value is recorded as “can induce cell death”. In addition, the “cell death (percent trypan blue positive cells) in Cath.a cells in the absence of external calcium” value (no external calcium, 80 min after stimulation with 250 nM capsaicin) is reported as “dependent upon the presence of external calcium”.
